Test results published in patent publication US11566007B2, “Ras inhibitors” (Revolution Medicines, Inc., priority 2019, dated 2023).
Like-named read-outs stand apart in the source and are kept apart here.

What was measured:
[1] = tested on: NCI-H358 cells (K-Ras G12C); experiment: Potency assay: pERK in NCI-H358 cells; assay type: cell-based, human; conditions: H358 KRAS G12C, read-out: pERK EC50
How it was run: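 pERK decrease read by AlphaLISA SureFire p-ERK1/2 or In-Cell Western after 4 h compound exposure at 37 °C, 5% CO2.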

[2] = tested on: NCI-H358 (K-Ras G12C); experiment: CellTiter-Glo cell viability assay, NCI-H358; assay type: cell-based, human; conditions: NCI-H358, 5-day treatment, class symbols, read-out: Additional H358 Cell Viability assay data (K-Ras G12C, IC50)
How it was run: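 Cells seeded, compound added directly, 5-day exposure. Plates to RT ~30 min, CellTiter-Glo luminescence read. Normalized to DMSO avg (x100); 4-parameter logistic fit.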

[3] = molecular target: KRAS G12S (Homo sapiens (Human), UniProt P01116+P62937, G12S); experiment: Ras-Raf (BRAF RBD) disruption / FRET / MOA assay, KRAS G12S; assay type: biochemical; conditions: Ras-Raf disruption/FRET/MOA assay; class symbols; read-out: KRAS G12S FRET data IC50
Sequence of KRAS G12S (P01116-2 other isoform, or with tags, fused parts or gaps G12S): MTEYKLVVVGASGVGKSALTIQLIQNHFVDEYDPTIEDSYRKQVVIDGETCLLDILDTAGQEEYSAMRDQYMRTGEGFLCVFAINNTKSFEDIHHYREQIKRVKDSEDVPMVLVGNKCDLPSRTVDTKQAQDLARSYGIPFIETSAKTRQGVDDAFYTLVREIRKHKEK
Sequence of KRAS G12S (P62937 whole entry): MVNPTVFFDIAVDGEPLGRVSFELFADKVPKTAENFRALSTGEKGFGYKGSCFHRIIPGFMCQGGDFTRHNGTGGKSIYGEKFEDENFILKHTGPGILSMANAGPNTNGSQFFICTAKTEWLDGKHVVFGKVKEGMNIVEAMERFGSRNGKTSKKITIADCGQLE
How it was run: (§1)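 TR-FRET read-out: a drop in ratio relative to DMSO wells marks disruption of the Ras:RAF complex, reported as IC50. Compounds (3-fold series, 10 points, top 30 μM final) incubated 3 h at 25° C before Eu-anti-His 10 nM and APC-anti-GST 50 nM, 1.5 h more.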

[4] = molecular target: KRAS G12D (Homo sapiens (Human), UniProt P01116+P62937, G12D); experiment: Ras-Raf (BRAF RBD) disruption / FRET / MOA assay, KRAS G12D; assay type: biochemical; conditions: Ras-Raf disruption/FRET/MOA assay; class symbols; read-out: KRAS G12D FRET data IC50
Sequence of KRAS G12D (P01116-2 other isoform, or with tags, fused parts or gaps G12D): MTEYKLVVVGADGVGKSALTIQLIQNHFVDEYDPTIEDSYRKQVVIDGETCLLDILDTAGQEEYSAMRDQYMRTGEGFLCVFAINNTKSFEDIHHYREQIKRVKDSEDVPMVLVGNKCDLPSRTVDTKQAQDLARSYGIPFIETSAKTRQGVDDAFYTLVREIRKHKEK
Sequence of KRAS G12D (P62937 whole entry): as the sequence (P62937 whole entry) above
How it was run: as §1

SMILES	EC50 ([1]; Homo sapiens, NCI-H358)	IC50 ([2]; Homo sapiens, NCI-H358, 120 h)	EC50 [1]	IC50 [2]	IC50 [3]	IC50 [4]
C=CC(=O)N1CCC(F)(C(=O)N(C)[C@H](C(=O)N[C@H]2Cc3cccc(c3)-c3ccc4c(c3)c(c(-c3cccnc3[C@H](C)OC)n4CC)CC(C)(C)COC(=O)[C@@H]3CCCN(N3)C2=O)C(C)C)CC1 (atropisomer, axis not shown) [Example A519]	–	–	< 5000 nM	< 10 nM	100 to 1000 nM	1000 to 10000 nM
C=CC(=O)N1CC[C@H](C(=O)N(C)[C@H](C(=O)N[C@H]2Cc3cc(O)cc(c3)-c3ccc4c(c3)c(c(-c3cnccc3COC)n4CC)CC(C)(C)COC(=O)[C@@H]3CCCN(N3)C2=O)C(C)C)C1 [Example A91]	< 5000 nM	< 10 nM	–	–	–	–
C=CC(=O)N1CC[C@H](C(=O)N(C)[C@H](C(=O)N[C@H]2Cc3cc(O)cc(c3)-c3ccc4c(c3)c(c(-c3cccnc3CN(C)C)n4CC)CC(C)(C)COC(=O)[C@@H]3CCCN(N3)C2=O)C(C)C)C1 [Example A92]	< 5000 nM	100 to 1000 nM	–	–	–	–
C=CC(=O)N1CC[C@H](C(=O)N(C)[C@H](C(=O)N[C@H]2Cc3cc(O)cc(c3)-c3ccc4c(c3)c(c(-c3cccnc3COC)n4CC#N)CC(C)(C)COC(=O)[C@@H]3CCCN(N3)C2=O)C(C)C)C1 [Example A93]	< 5000 nM	10 to 100 nM	–	–	–	–
C=CC(=O)N1CC[C@H](C(=O)N(C)[C@H](C(=O)N[C@H]2Cc3nc(cs3)-c3ccc4c(c3)c(c(-c3cccnc3COC)n4CC)CC(C)(C)COC(=O)[C@@H]3CCCN(N3)C2=O)C(C)C)C1 [Example A94]	< 5000 nM	10 to 100 nM	–	–	–	–
CCn1c(-c2cccnc2COC)c2c3cc(ccc31)-c1cc(O)cc(c1)C[C@H](NC(=O)[C@H](C(C)C)N(C)C(=O)[C@H]1CCN(C(=O)C#CCN3CCOCC3)C1)C(=O)N1CCC[C@H](N1)C(=O)OCC(C)(C)C2 [Example A95, (2S)-N-[(8S,14S)-22-ethyl-4-hydroxy-21-[2-(methoxymethyl)pyridin-3-yl]-18,18-dimethyl-9,15-dioxo-16-oxa-10,22,28-triazapentacyclo[18.5.2.1^2,^6.1^10,^14.0^23,^27]nonacosa-1(26),2,4,6(29),20,23(27),24-heptaen-8-yl]-3-methyl-2-{N-methyl-1-[(3S)-1-[4-(morpholin-4-yl)but-2-ynoyl]pyrrolidin-3-yl]formamido}butanamide]	< 5000 nM	10 to 100 nM	–	–	–	–
CCn1c(-c2cccnc2COC)c2c3cc(ccc31)-c1cc(O)cc(c1)C[C@H](NC(=O)[C@H](C(C)C)N(C)C(=O)[C@H]1CCN(C(=O)C#CCN(C)C)C1)C(=O)N1CCC[C@H](N1)C(=O)OCC(C)(C)C2 [Example A96]	< 5000 nM	< 10 nM	–	–	–	–
CCn1c(-c2cccnc2COC)c2c3cc(ccc31)-c1cc(O)cc(c1)C[C@H](NC(=O)[C@H](C(C)C)N(C)C(=O)C1CN(C(=O)C#CCN(C)C)C1)C(=O)N1CCC[C@H](N1)C(=O)OCC(C)(C)C2 [Example A97]	< 5000 nM	10 to 100 nM	–	–	–	–
C=CC(=O)N1CC[C@H](C(=O)N(C)[C@H](C(=O)N[C@H]2Cc3cc(O)cc(c3)-c3ccc4c(c3)c(c(-c3ccc(C5CCN(C)CC5)nc3)n4CC)CC(C)(C)COC(=O)[C@@H]3CCCN(N3)C2=O)C(C)C)C1 [Example A98]	< 5000 nM	10 to 100 nM	–	–	–	–
C=CC(=O)N1CC[C@H](C(=O)N(C)[C@H](C(=O)N[C@H]2Cc3cc(O)cc(c3)-c3ccc4c(c3)c(c(-c3cnn(C)c3)n4CC)CC(C)(C)COC(=O)[C@@H]3CCCN(N3)C2=O)C(C)C)C1 [Example A99]	< 5000 nM	10 to 100 nM	–	–	–	–
CCn1c(-c2cccnc2[C@H](C)OC)c2c3cc(ccc31)-c1cc(O)cc(c1)C[C@H](NC(=O)[C@H](C(C)C)N(C)C(=O)c1nc(NC(=O)/C=C/CN(C)C)cs1)C(=O)N1CCC[C@H](N1)C(=O)OCC(C)(C)C2 [Example A258]	–	–	< 5000 nM	100 to 1000 nM	1000 to 10000 nM	–

Continued, in another order:

EC50 ([1]; Homo sapiens, NCI-H358)	IC50 ([2]; Homo sapiens, NCI-H358, 120 h)	SMILES	EC50 [1]	IC50 [2]	IC50 [3]	IC50 [4]
< 5000 nM	100 to 1000 nM	C=CC(=O)N1CC[C@H](C(=O)N(C)[C@H](C(=O)N[C@H]2Cc3cc(O)cc(c3)-c3ccc4c(c3)c(c(-c3c(CCOC)cccc3OC)n4CC)CC(C)(C)COC(=O)[C@@H]3CCCN(N3)C2=O)C(C)C)C1 [Example A80]	–	–	–	–
< 5000 nM	10 to 100 nM	C=CC(=O)N1CC[C@H](C(=O)N(C)[C@H](C(=O)N[C@H]2Cc3cc(O)cc(c3)-c3ccc4c(c3)c(c(-c3cc(F)cnc3COC)n4CC)CC(C)(C)COC(=O)[C@@H]3CCCN(N3)C2=O)C(C)C)C1 [Example A82]	–	–	–	–
< 5000 nM	10 to 100 nM	C=CC(=O)N1CC[C@H](C(=O)N(C)[C@H](C(=O)N[C@H]2Cc3cc(O)cc(c3)-c3ccc4c(c3)c(c(-c3cncc(COC)c3)n4CC)CC(C)(C)COC(=O)[C@@H]3CCCN(N3)C2=O)C(C)C)C1 [Example A83]	–	–	–	–
< 5000 nM	100 to 1000 nM	C=CC(=O)N1CC[C@H](C(=O)N(C)[C@H](C(=O)N[C@H]2Cc3cc(O)cc(c3)-c3ccc4c(c3)c(c(-c3ncccc3COC)n4CC)CC(C)(C)COC(=O)[C@@H]3CCCN(N3)C2=O)C(C)C)C1 [Example A84]	–	–	–	–
< 5000 nM	100 to 1000 nM	C=CC(=O)N1CC[C@H](C(=O)N(C)[C@H](C(=O)N[C@H]2Cc3cc(O)cc(c3)-c3ccc4c(c3)c(c(-c3nccnc3COC)n4CC)CC(C)(C)COC(=O)[C@@H]3CCCN(N3)C2=O)C(C)C)C1 [Example A85]	–	–	–	–
< 5000 nM	10 to 100 nM	C=CC(=O)N1CC[C@H](C(=O)N(C)[C@H](C(=O)N[C@H]2Cc3cc(O)cc(c3)-c3ccc4c(c3)c(c(-c3ccncc3)n4C(C)(C)C#N)CC(C)(C)COC(=O)[C@@H]3CCCN(N3)C2=O)C(C)C)C1 [Example A86]	–	–	–	–
< 5000 nM	10 to 100 nM	CCn1c(-c2cnccc2COC)c2c3cc(ccc31)-c1cc(O)cc(c1)C[C@H](NC(=O)[C@H](C(C)C)N(C)C(=O)[C@H]1CCN(C(=O)/C=C/CN(C)C)C1)C(=O)N1CCC[C@H](N1)C(=O)OCC(C)(C)C2 [Example A87]	–	–	–	–
< 5000 nM	10 to 100 nM	C=CC(=O)N1CC[C@H](C(=O)N(C)[C@H](C(=O)N[C@H]2Cc3cc(O)cc(c3)-c3ccc4c(c3)c(c(-c3ccc(N5CCN(C)CC5)nc3)n4CC)CC(C)(C)COC(=O)[C@@H]3CCCN(N3)C2=O)C(C)C)C1 [Example A89, (2S)-N-[(8S,14S)-22-ethyl-4-hydroxy-18,18-dimethyl-21-[6-(4-methylpiperazin-1-yl)pyridin-3-yl]-9,15-dioxo-16-oxa-10,22,28-triazapentacyclo[18.5.2.1^2,^6.1^10,^14.0^23,^27]nonacosa-1(26),2,4,6(29),20,23(27),24-heptaen-8-yl]-3-methyl-2-{N-methyl-1-[(3S)-1-(prop-2-enoyl)pyrrolidin-3-yl]formamido}butanamide]	–	–	–	–
